Reference: patent US20060281726A1, “Piperidine derivatives for the treatment of chemokine or h1 mediated disease state” (priority 2003, published 2006)

The compounds below were run against T1, human H1 receptor (Homo sapiens, UniProt P35367) (assay: Histamine H1 receptor binding, competition displacement of [3H]-pyrilamine). Conditions: displacement of 1 nM [3H]-pyrilamine; membranes from recombinant CHO-K1 cells expressing the human H1 receptor; 1 hour at room temperature; read-out: H1 pKi/[1328_S] (converted).
T1 construct: purchased Euroscreen SA, Brussels, Belgium ES-390-M; host or cells: CHO-K1
T1 sequence (P35367 whole entry): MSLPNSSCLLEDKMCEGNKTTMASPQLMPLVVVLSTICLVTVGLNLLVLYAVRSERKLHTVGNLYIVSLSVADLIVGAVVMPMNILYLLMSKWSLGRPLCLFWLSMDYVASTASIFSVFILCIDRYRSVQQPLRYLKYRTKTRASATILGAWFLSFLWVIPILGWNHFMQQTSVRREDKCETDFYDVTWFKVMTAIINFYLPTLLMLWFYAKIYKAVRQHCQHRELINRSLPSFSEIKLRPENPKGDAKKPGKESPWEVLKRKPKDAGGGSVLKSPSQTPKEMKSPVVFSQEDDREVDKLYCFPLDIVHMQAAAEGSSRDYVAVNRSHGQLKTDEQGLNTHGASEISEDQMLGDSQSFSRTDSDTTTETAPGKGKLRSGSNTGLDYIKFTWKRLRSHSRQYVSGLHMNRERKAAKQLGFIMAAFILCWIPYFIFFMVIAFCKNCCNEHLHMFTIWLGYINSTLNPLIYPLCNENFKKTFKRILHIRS
Procedure: Histamine H1 receptor binding activity of compounds of the invention was assessed by competition displacement of 1 nM [3H]-pyrilamine (Amersham, Bucks, Product code TRK 608, specific activity 30 Ci/mmol) to 2 μg membranes prepared from recombinant CHO-K1 cells expressing the human H1 receptor (Euroscreen SA, Brussels, Belgium, product code ES-390-M) in assay buffer (50 mM Tris pH 7.4 containing 2 mM MgCl2, 250 mM sucrose and 100 mM NaCl) for 1 hour at room temperature.

Row | Structure (SMILES) | Ki
1 | O=C(O)c1ccccc1C(=O)N1CCC(CN2CCC(Oc3ccc(Cl)c(Cl)c3)CC2)CC1 [Example 1, 2-[[4-[[4-(3,4-dichlorophenoxy)-1-piperidinyl]methyl]-1-piperidinyl]carbonyl]-benzoic acid] | 316 nM
2 | Cc1c(Cl)ccc(OC2CCN(CC3CCN(C(=O)c4ccccc4C(=O)O)CC3)CC2)c1Cl [Example 2, 2-[[4-[[4-(2,4-Dichloro-3-methylphenoxy)-1-piperidinyl]methyl]-1-piperidinyl]carbonyl]-benzoic acid] | 63.1 nM
3 | Cc1c(OC2CCN(CC3CCN(C(=O)c4ccccc4C(=O)O)CC3)CC2)ccc(Cl)c1Cl [Example 3, 2-[[4-[[4-(3,4-Dichloro-2-methylphenoxy)-1-piperidinyl]methyl]-1-piperidinyl]carbonyl]-benzoic acid] | 200 nM
4 | O=C(O)Cc1ccccc1C(=O)N1CCC(CN2CCC(Oc3ccc(Cl)c(Cl)c3)CC2)CC1 [Example 12, 2-[[4-[[4-(3,4-dichlorophenoxy)-1-piperidinyl]methyl]-1-piperidinyl]carbonyl]-benzeneacetic acid] | 251 nM
5 | CS(=O)(=O)c1cc(C(=O)N2CCC(CN3CCC(Oc4ccc(Cl)c(Cl)c4)CC3)CC2)ccc1O [Example 19, 4-[[4-(3,4-dichlorophenoxy)-1-piperidinyl]methyl]-1-[4-hydroxy-3-(methylsulfonyl)benzoyl]-piperidine] | 31.6 nM
